Test results: patent US11708359B2, “Monoacylglycerol lipase modulators” (Janssen Pharmaceutica NV, priority 2020, dated 2023)

target: human MGL from HeLa cells (Homo sapiens (Human), UniProt Q99685); experiment: MGL in vitro activity assay ([glycerol-1,3-3H]-oleoyl glycerol cleavage, activated carbon filter); assay type: biochemical; conditions: not given
Method: The assay consists of combining endogenously expressed MGL from HeLa cells with test compounds, adding[glycerol-1,3-^3H]-oleoyl glycerol, incubating for one hour, and then measuring the amount of cleaved[1,3-^3H]-glycerol that passes through an activated carbon filter. The amount of cleaved, tritiated glycerol passing through the carbon filter is proportional to the activity of the MGL enzyme in a particular well/test condition.
Standard conditions for this assay combine 300 nM [Glycerol-1,3-^3H]-oleoyl glycerol with human MGL from HeLa cells and test compounds for one hour, after which the reaction is filtered through activated carbon and tritium is measured in the flow through. […] MGL is the predominant hydrolase in HeLa cells/cell homogenates.

Chain of human MGL from HeLa cells (Q99685 whole entry): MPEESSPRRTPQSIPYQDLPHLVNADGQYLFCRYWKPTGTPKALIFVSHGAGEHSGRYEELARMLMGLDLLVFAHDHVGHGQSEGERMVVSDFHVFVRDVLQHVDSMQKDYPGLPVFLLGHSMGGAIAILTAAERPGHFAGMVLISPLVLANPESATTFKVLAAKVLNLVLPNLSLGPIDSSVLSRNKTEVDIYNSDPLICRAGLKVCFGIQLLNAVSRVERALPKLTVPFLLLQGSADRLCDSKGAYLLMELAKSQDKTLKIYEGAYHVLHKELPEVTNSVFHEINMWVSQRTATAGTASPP

Structure (SMILES) | IC50 [nM]
Cc1ccc(C23CCN(C(=O)[C@H]4C[C@]5(COC(=O)N5)C4)CC2C3)cc1OC(F)(F)F (mixture of isomers) [Example 75, (rac)-(2s,4s)-2-(6-(4-Methyl-3-(trifluoromethoxy)phenyl)-3-azabicyclo[4.1.0]heptane-3-carbonyl)-7-oxa-5-azaspiro[3.4]octan-6-one] | 0.34

same assay, conditions: 300 nM [Glycerol-1,3-3H]-oleoyl glycerol, endogenously expressed MGL from HeLa cells, one hour incubation; read-out: MGL IC50

Structure (SMILES) | IC50 [nM]
O=C1N[C@]2(CO1)C[C@H](C(=O)N1C[C@@H]3[C@H](C1)[C@H]3c1ccc(C(F)(F)F)cc1)C2 [Example 80, (2s,4S)-2-((1R,5S,6S)-6-(4-(Trifluoromethyl)phenyl)-3-azabicyclo[3.1.0]hexane-3-carbonyl)-7-oxa-5-azaspiro[3.4]octan-6-one] | 33
CC(C)(C)c1cccc(C23CCN(C(=O)[C@H]4C[C@]5(CCC(=O)N5)C4)CC2C3)c1 (mixture of isomers) [Example 61, (rac)-(2r,4s)-2-(6-(3-(tert-Butyl)phenyl)-3-azabicyclo[4.1.0]heptane-3-carbonyl)-5-azaspiro[3.4]octan-6-one] | 0.25
Cc1cc(C2CC2)ccc1[C@H]1[C@@H]2CN(C(=O)[C@H]3C[C@]4(COC(=O)N4)C3)C[C@@H]21 [Example 109, (2s,4S)-2-((1R,5S,6S)-6-(4-Cyclopropyl-2-methylphenyl)-3-azabicyclo[3.1.0]hexane-3-carbonyl)-7-oxa-5-azaspiro[3.4]octan-6-one] | 1.6
Cc1ccc(C23CCN(C(=O)[C@H]4C[C@]5(CCC(=O)N5)C4)CC2C3)cc1Cl (mixture of isomers) [Example 68, (rac)-(2r,4s)-2-(6-(3-Chloro-4-methylphenyl)-3-azabicyclo[4.1.0]heptane-3-carbonyl)-5-azaspiro[3.4]octan-6-one] | 5.6
Cc1cccc([C@]23CCN(C(=O)[C@H]4C[C@]5(COC(=O)N5)C4)C[C@H]2C3)c1 (stereo in doubt) [Example 44, (2s,4*R)-2-((1*S,6*R)-6-(m-Tolyl)-3-azabicyclo[4.1.0]heptane-3-carbonyl)-7-oxa-5-azaspiro[3.4]octan-6-one] | 2.8
Cc1ccc([C@H]2[C@@H]3CN(C(=O)[C@H]4C[C@]5(COC(=O)N5)C4)C[C@@H]32)cc1C [Example 88, (2s,4S)-2-((1R,5S,6S)-6-(3,4-Dimethylphenyl)-3-azabicyclo[3.1.0]hexane-3-carbonyl)-7-oxa-5-azaspiro[3.4]octan-6-one] | 29
Cc1ccc([C@H]2[C@@H]3CN(C(=O)[C@H]4C[C@]5(CCC(=O)N5)C4)C[C@@H]32)cc1C [Example 89, (2r,4S)-2-((1R,5S,6S)-6-(3,4-Dimethylphenyl)-3-azabicyclo[3.1.0]hexane-3-carbonyl)-5-azaspiro[3.4]octan-6-one] | 178
CC(C)(C)c1ccc(C23CC2CN(C(=O)[C@H]2C[C@]4(CCC(=O)N4)C2)C3)cc1 (mixture of isomers) [Example 13, (rac)-(2r,4s)-2-(1-(4-(tert-Butyl)phenyl)-3-azabicyclo[3.1.0]hexane-3-carbonyl)-5-azaspiro[3.4]octan-6-one] | 9.2
O=C1CC[C@]2(C[C@H](C(=O)N3CCC4(c5cccc(C6CC6)c5)CC4C3)C2)N1 (mixture of isomers) [Example 65, (rac)-(2r,4s)-2-(6-(3-Cyclopropylphenyl)-3-azabicyclo[4.1.0]heptane-3-carbonyl)-5-azaspiro[3.4]octan-6-one] | 4
O=C1N[C@]2(CO1)C[C@H](C(=O)N1C[C@@H]3[C@H](C1)[C@H]3c1cccc(OC(F)(F)F)c1)C2 [Example 38, (2s,4S)-2-((1R,5S,6S)-6-(3-(Trifluoromethoxy)phenyl)-3-azabicyclo[3.1.0]hexane-3-carbonyl)-7-oxa-5-azaspiro[3.4]octan-6-one] | 21
CC(C)(CO)c1cccc([C@H]2[C@@H]3CN(C(=O)[C@H]4C[C@]5(COC(=O)N5)C4)C[C@@H]32)c1 [Example 104, (2s,4S)-2-((1R,5S,6S)-6-(3-(1-Hydroxy-2-methylpropan-2-yl)phenyl)-3-azabicyclo[3.1.0]hexane-3-carbonyl)-7-oxa-5-azaspiro[3.4]octan-6-one] | 19

Further lines, results first:

IC50 [nM] | Structure (SMILES)
32 | O=C1N[C@]2(CO1)C[C@H](C(=O)N1CCC3(c4ccccc4)C(C1)C3(Cl)Cl)C2 (racemic) [Example 124, (rac)-(2s,4s)-2-(7,7-Dichloro-6-phenyl-3-azabicyclo[4.1.0]heptane-3-carbonyl)-7-oxa-5-azaspiro[3.4]octan-6-one]
25 | CCc1ccc([C@H]2[C@@H]3CN(C(=O)[C@H]4C[C@]5(COC(=O)N5)C4)C[C@@H]32)cc1 [Example 86, (2s,4S)-2-((1R,5S,6S)-6-(4-Ethylphenyl)-3-azabicyclo[3.1.0]hexane-3-carbonyl)-7-oxa-5-azaspiro[3.4]octan-6-one]
16 | O=C1N[C@]2(CO1)C[C@H](C(=O)N1CC3CC3(c3ccc(OC(F)(F)F)cc3)C1)C2 (mixture of isomers) [Example 22, (rac)-(2s,4s)-2-(1-(4-(Trifluoromethoxy)phenyl)-3-azabicyclo[3.1.0]hexane-3-carbonyl)-7-oxa-5-azaspiro[3.4]octan-6-one]
3.1 | Cc1cc(OC(F)(F)F)ccc1C12CC1CN(C(=O)[C@H]1C[C@]3(COC(=O)N3)C1)C2 (mixture of isomers) [Example 34, (rac)-(2s,4s)-2-(1-(2-Methyl-4-(trifluoromethoxy)phenyl)-3-azabicyclo[3.1.0]hexane-3-carbonyl)-7-oxa-5-azaspiro[3.4]octan-6-one]
300 | CC(C)(C(=O)O)c1cccc([C@H]2[C@@H]3CN(C(=O)[C@H]4C[C@]5(COC(=O)N5)C4)C[C@@H]32)c1 [Example 105]
11 | O=C1N[C@]2(CO1)C[C@H](C(=O)N1CC3CC3(c3cccc(OC(F)(F)F)c3)C1)C2 (mixture of isomers) [Example 19, (rac)-(2s,4s)-2-(1-(3-(Trifluoromethoxy)phenyl)-3-azabicyclo[3.1.0]hexane-3-carbonyl)-7-oxa-5-azaspiro[3.4]octan-6-one]
1.3 | Cc1ccc([C@@]23CCN(C(=O)[C@H]4C[C@]5(COC(=O)N5)C4)C[C@@H]2C3)cc1F (stereo in doubt) [Example 48, (2s,4*5)-2-((1*R,6*5)-6-(3-Fluoro-4-methylphenyl)-3-azabicyclo[4.1.0]heptane-3-carbonyl)-7-oxa-5-azaspiro[3.4]octan-6-one]
180 | Cc1ccccc1[C@H]1[C@@H]2CN(C(=O)[C@H]3C[C@]4(COC(=O)N4)C3)C[C@@]21C (racemic) [Example 97, (rac)-(2s,4*S)-2-((1*R,5*S,6*R)-1-Methyl-6-(o-tolyl)-3-azabicyclo[3.1.0]hexane-3-carbonyl)-7-oxa-5-azaspiro[3.4]octan-6-one]
150 | Cc1ccccc1[C@H]1[C@@H]2CN(C(=O)[C@H]3C[C@]4(COC(=O)N4)C3)C[C@@H]21 [Example 98, (2s,4S)-2-((1R,5S,6S)-6-(o-Tolyl)-3-azabicyclo[3.1.0]hexane-3-carbonyl)-7-oxa-5-azaspiro[3.4]octan-6-one]
1.1 | CC1(c2cccc(C34CC3CN(C(=O)[C@H]3C[C@]5(COC(=O)N5)C3)C4)c2)CC1 (mixture of isomers) [Example 31, (rac)-(2s,4s)-2-(1-(3-(1-Methylcyclopropyl)phenyl)-3-azabicyclo[3.1.0]hexane-3-carbonyl)-7-oxa-5-azaspiro[3.4]octan-6-one]
3.6 | Cc1ccc(C23CC2CN(C(=O)[C@H]2C[C@]4(COC(=O)N4)C2)C3)cc1C(F)(F)F (mixture of isomers) [Example 25, (rac)-(2s,4s)-2-(1-(4-Methyl-3-(trifluoromethyl)phenyl)-3-azabicyclo[3.1.0]hexane-3-carbonyl)-7-oxa-5-azaspiro[3.4]octan-6-one]
14 | Cc1cccc(C23CC2CN(C(=O)[C@H]2C[C@]4(COC(=O)N4)C2)C3)c1 (mixture of isomers) [Example 21, (rac)-(2s,4s)-2-(1-(m-Tolyl)-3-azabicyclo[3.1.0]hexane-3-carbonyl)-7-oxa-5-azaspiro[3.4]octan-6-one]
73 | C[C@]12CN(C(=O)[C@H]3C[C@]4(COC(=O)N4)C3)C[C@H]1[C@@H]2c1ccc(OC(F)(F)F)cc1 (racemic) [Example 107, (rac)-(2s,4*5)-2-((1*R,5*S,6*R)-1-Methyl-6-(4-(trifluoromethoxy)phenyl)-3-azabicyclo[3.1.0]hexane-3-carbonyl)-7-oxa-5-azaspiro[3.4]octan-6-one]
5.6 | O=C1N[C@]2(CO1)C[C@H](C(=O)N1CC3CC3(c3cccc(C4CC4)c3)C1)C2 (mixture of isomers) [Example 16, (rac)-(2s,4s)-2-(1-(3-Cyclopropylphenyl)-3-azabicyclo[3.1.0]hexane-3-carbonyl)-7-oxa-5-azaspiro[3.4]octan-6-one]
1.5 | O=C1N[C@]2(CO1)C[C@H](C(=O)N1CC3CC3(c3cccc(Oc4ccccc4)c3)C1)C2 (mixture of isomers) [Example 29, (rac)-(2s,4s)-2-(1-(3-Phenoxyphenyl)-3-azabicyclo[3.1.0]hexane-3-carbonyl)-7-oxa-5-azaspiro[3.4]octan-6-one]
3.2 | Cc1cc(C23CC2CN(C(=O)[C@H]2C[C@]4(COC(=O)N4)C2)C3)ccc1C(F)(F)F (mixture of isomers) [Example 36, (rac)-(2s,4s)-2-(1-(3-Methyl-4-(trifluoromethyl)phenyl)-3-azabicyclo[3.1.0]hexane-3-carbonyl)-7-oxa-5-azaspiro[3.4]octan-6-one]
17 | Cc1ccc([C@H]2[C@@H]3CN(C(=O)[C@H]4C[C@]5(COC(=O)N5)C4)C[C@@H]32)cc1Cl [Example 110, (2s,4S)-2-((1R,5S,6S)-6-(3-Chloro-4-methylphenyl)-3-azabicyclo[3.1.0]hexane-3-carbonyl)-7-oxa-5-azaspiro[3.4]octan-6-one]
